Where a name gives a salt, the structure may show the parent alone.
Columns and labels:
SK-Hep-1 cells = test: Cell viability assay (Cell Titer-Glo); type: cell-based; conditions: for IC50 lower than that of MK-4: 96 h of treatment; for IC50: Homo sapiens, 95% confidence interval in square brackets
Method: (§1) To assess the effects of MKH-ester prodrugs on HCC cell proliferation, DCP-positive (PLC/PRF/5) and DCP-negative (SK-Hep-1) HCC cell lines were treated with various concentrations of MKH-ACT, MKH-DMG, MKH-SUC or MK-4 up to 96 h, and cell viability was determined.
(§2) Cell viability was determined using a previously reported method. Briefly, PLC/PRF/5 and SK-Hep-1 cells were plated at 5.0 × 10^3 cells/well in 96-well plates and allowed to attach for 48 h. MK-4 and MKH-ACT were dissolved in 99.5% ethanol. MKH-SUC was dissolved in DMSO. MKH-DMG was dissolved in sterilized water. Stock solutions of each drug (50 mM) were diluted to the intended final concentrations with medium. Cells were exposed to MK-4, MKH-ACT, MKH-DMG or MKH-SUC for up to 96 h, and cell viability was evaluated using the Cell Titer-Glo Luminescent Cell Viability Assay (Promega, Madison, WI, USA) according to the manufacturer’s instructions. IC50 values were determined by a log [drug] vs. normalized response-variable slope analysis of GraphPad Prism, version 6.0 (GraphPad Software, San Diego, CA, USA).

PLC/PRF/5 cells = test: Cell viability assay (Cell Titer-Glo); type: cell-based; conditions: for IC50: Homo sapiens, 95% confidence interval in square brackets; for IC50 lower than that of MK-4: 96 h of treatment
Method: as §1, §2

[1] = parameters: method as in PMID 17537874, PMID 10077437; conditions: cited from earlier work
[2] = Hydrolysis of MKH-SUC in isotonic buffer solution (PBS); type: physicochemical; conditions: in PBS at 37 °C; read-out: Half-life toward MKH (converted)
Method: Next, a time course of MKH delivery with the MKH derivatives, including MK-4, was investigated. The AUC0–24h values for MKO after treatment of MKH-SUC was the highest among the three MKH-derivatives in both HCC cell lines, and the AUC0–24h values for MKH after treatment of MKH-SUC were also the highest (Table 3). […] However, the difference in MKH delivery was not higher than that of the regeneration to MKH by the esterase of HCC (Figure 4 and Table 2). […] These differences may result from the actual amount (nearly equal to Vmax values) of uptake and the regeneration step between MKH-ACT and MKH-DMG, and the rates of transportation/enzymatic reactions to the substances (Km) of MKH-ACT and MKH-DMG may be sufficient to reach Vmax under the test conditions shown in Figure 5. […] Regarding the decrease of MK-4 after 24 h treatment of MKH-SUC in both cells (Figure 5D,H), this phenomenon may be explained by the disposition of hydrolysis of MKH-SUC in an isotonic buffer solution. […] This is because, at 24 h, the delivery of MKH, which acts as a cofactor of GGCX, remained sufficient, but excess MKH that would be oxidized to MK-4 may be reduced with the elimination of MKH-SUC.

IC50 lower than that of MK-4 (SK-Hep-1 cells) [fold] | IC50 (SK-Hep-1 cells; SK-HEP1, 72 h) [µM] | IC50 (SK-Hep-1 cells; SK-HEP1, 96 h) [µM] | melting point [°C] | IC50 (SK-Hep-1 cells; SK-HEP1, 48 h) [µM] | half-life [2] [h] | Compound | IC50 (PLC/PRF/5 cells; 72 h) [µM] | IC50 (PLC/PRF/5 cells; 96 h) [µM] | IC50 lower than that of MK-4 (PLC/PRF/5 cells) [fold] | IC50 (PLC/PRF/5 cells; 48 h) [µM] | Hydrolysis in human plasma [1]
1.23 | 71.6 | 71.9 | 39 to 41 |  |  | CC(=O)Oc1c(C)c(C/C=C(\C)CC/C=C(\C)CC/C=C(\C)CCC=C(C)C)c(OC(C)=O)c2ccccc12 [MKH-ACT, Menahydroquinone-4 1,4-bis acetate] | 152 | 114 |  |  | 
3.61 | 32.5 | 24.4 |  | 71.3 |  | CC(C)=CCC/C(C)=C/CC/C(C)=C/CC/C(C)=C/Cc1c(C)c(OC(=O)CN(C)C)c2ccccc2c1OC(=O)CN(C)C [MKH-DMG, Menahydroquinone-4 1,4-bis-N,N-dimethylglycinate hydrochloride] | 33.4 | 27.4 | 3.17 | 63 | not accelerated
12.3 | 15.8 | 7.16 |  | 78.1 | ~25 | CC(C)=CCC/C(C)=C/CC/C(C)=C/CC/C(C)=C/Cc1c(C)c(OC(=O)CCC(=O)O)c2ccccc2c1OC(=O)CCC(=O)O [MKH-SUC, Menahydroquinone-4 1,4-bis hemisuccinate] | 26.6 | 20.1 | 4.32 | 48.9 | 
